# Values of other authors as cited in patent US7799817B2, “Compositions and methods for sleep regulation” (LifeScape BioSciences Inc, priority 2004, dated 2010).
# Where two headings read alike, the source gives them in different places.
# Experiments:
# jet lag [1] = tested on: jet lag
# jet lag [2] = settings: for mean global jet lag score: 0=no jet lag, 100=extreme jet lag
# [3] = adult human
compound,measurement,setting,value
"COc1ccc2[nH]cc(CCNC(C)=O)c2c1 [melatonin, N-acetyl-5-methoxytryptamine]",effectiveness of lower dose for symptoms of jet lag unrelated to sleep,jet lag [1]; 0.5 mg fast release versus 5 mg,almost as effective as the higher dose
same,effect of higher dose on sleep quality and sleep latency,jet lag [1]; 5 mg versus 0.5 mg fast release,greater effect on sleep quality and sleep latency than the lower dose
same,effectiveness of slow release form,jet lag [1]; slow release 2 mg versus 5 mg or 0.5 mg fast release,less effective than either 5 mg or 0.5 mg (fast release)
same,mean global jet lag score,"jet lag [2]; eastward flights, four trials combined, placebo 51",31
same,jet lag after melatonin administration,"jet lag [2]; eight of ten randomized, placebo-controlled trials",less jet lag
same,mean global jet lag score,"jet lag [2]; westward flights, two RCTs, placebo 41",22
same,half-life,[3],approximately 45 minutes
